According to US20260225998A1, “NEW COMPOUNDS FOR TREATING STREPTOCOCCUS INFECTIONS” (AB2 THERAPEUTICS, S. L., priority 2023, published 2026):
Values after ≈ are worked out from the molar mass of the structure shown.

Legend:
Streptococcus pneumoniae = experiment: MIC test, microdilution method (CLSI); assay type: cell-based; details: ATCC strain of Streptococcus pneumoniae, 18-20 h at 37° C., MIC = concentration at which growth inhibited ≥80%, read-out: Activity (MIC) Spn
Procedure: (§1) Experimental Procedure: MIC Test. Microdilution Method
(§2) To evaluate the antimicrobial activity of the compounds, ATCC strains of Streptococcus pneumoniae and Streptococcus pyogenes were used. The minimal inhibitory concentrations (MICs) of the compounds were determined by microdilution assays, according to CLSI methodology.
(§3) 3 mg of compound were weighted in a 4 mL glass vials and were dissolved in properly volume of DMSO 100% (Reference: D2438-50, Sigma) to reach 12.8 mg/mL. (Cmax.).
(§4) In 96-well plates U-form (Reference: 650161, Greiner Bio-One): • Dispense 50 μL of the assayed compounds prepared in DMSO 100% at 12.8 mg/mL in each well in column 1. (8 different compounds per plate, row 1 to row 8) • Dispense 25 μL of DMSO 100% in all wells in columns 2 to 12. • With a multichannel pipette, aspire 25 μL of column 1 and dispense in column 2. Mix the contents in column 2 several times and aspire 25 uL. Dispense in column 3. • Repeat the process until column 10. In column 10, aspire 25 μL of the content and discard. • The final mother plate map is (all values in mg/mL)
(§5) In 96-well plates U-form: • With a multichannel pipette (in dispensing mode), aspire a properly volume (consider the number of copies of the mother plate do you want to perform) of all wells in mother plate, to dispense 1 μL/well in daughter plates.
(§6) Bacterial suspension will be prepared and normalized to 0.5 McFarland turbidity standard (approximately 10^8 CFU/mL) using a physiological saline solution (sodium chloride 0,9%). Then, prepared a 1/1000 dilution (approximately 10^5 CFU/mL) of the suspension in appropriate media (CLSI Standard) and inoculate 99 μL in each well in daughter plates (only columns 1 to 11) using a multidrop™ Combi Reagent Dispenser. In column 12, only 99 μL of media will be dispense as a sterility control.
(§7) The final plate map is (all values in μg/mL):
(§8) Plates will be incubated 18-20 h at 37° C. MIC values will be considered as the concentration of compounds at which the growth will be inhibited=>≥80%, compared to growth control.

Streptococcus pyogenes = experiment: MIC test, microdilution method (CLSI); assay type: cell-based; details: ATCC strain of Streptococcus pyogenes, 18-20 h at 37° C., MIC = concentration at which growth inhibited ≥80%, read-out: Activity (MIC) Spy
Procedure: as §1, §2, §3, §4, §5, §6, §7, §8

Row | SMILES | MIC (Streptococcus pneumoniae) | MIC (Streptococcus pyogenes)
1 | NC(=O)[C@@H](O)CNC(=O)c1ccc(O[C@@H](CC2CCOCC2)c2ccc(-c3ccc(C(F)(F)F)cc3)cc2)cc1 [Example 4, N-((S)-3-amino-2-hydroxy-3-oxopropyl)-4-((S)-2-(tetrahydro-2H-pyran-4-yl)-1-(4′-(trifluoromethyl)-[1,1′-biphenyl]-4-yl)ethoxy)benzamide] | > 128 µg/mL | > 128 µg/mL
2 | CC(C)C[C@H](Oc1ccc(C(=O)NC[C@H](O)C(N)=O)cc1)c1ccc(-c2ccc(C(F)(F)F)cc2)cc1 [Example 5, N-((S)-3-amino-2-hydroxy-3-oxopropyl)-4-((S)-3-methyl-1-(4′-(trifluoromethyl)-[1,1′-bipheny]-4-yl)butoxy)benzamide] | > 128 µg/mL | > 128 µg/mL
3 | CNC(=O)[C@@H](O)CNC(=O)c1ccc(O[C@@H](CC2CCCCC2)c2cccc(-c3ccc(C(F)(F)F)cc3)c2)cc1 [Example 8, 4-((S)-2-cyclohexyl-1-(4′-(trifluoromethyl)-[1,1′-biphenyl]-3-yl)ethoxy)-N-((S)-2-hydroxy-3-(methylamino)-3-oxopropyl)benzamide] | 4 µg/mL (≈ 7.03 µM) | 4 µg/mL (≈ 7.03 µM)

Continued by falling MIC (Streptococcus pneumoniae), values first:

Row | MIC (Streptococcus pneumoniae) | MIC (Streptococcus pyogenes) | SMILES
4 | 4 µg/mL (≈ 7.93 µM) | 4 µg/mL (≈ 7.93 µM) | NC(=O)[C@@H](O)CNC(=O)c1ccc(O[C@@H](CC2CCCCC2)c2ccc(-c3ccc(F)cc3)cc2)cc1 [Example 1, N-((S)-3-Amino-2-hydroxy-3-oxopropyl)-4-((S)-2-cyclohexyl-1-(4′-fluoro-[1,1′-biphenyl]-4-yl)ethoxy)benzamide]
5 | 4 µg/mL (≈ 7.99 µM) | 4 µg/mL (≈ 7.99 µM) | CC(C)[C@H](Oc1ccc(C(=O)NC[C@H](O)C(N)=O)cc1)c1ccc(-c2ccc(C(F)(F)F)cc2)cc1 [Example 6, N-((S)-3-amino-2-hydroxy-3-oxopropyl)-4-((S)-2-methyl-1-(4′-(trifluoromethyl)-[1,1′-biphenyl]-4-yl)propoxy)benzamide]
6 | 2 µg/mL (≈ 3.61 µM) | 1 µg/mL (≈ 1.8 µM) | NC(=O)[C@@H](O)CNC(=O)c1ccc(O[C@@H](CC2CCCCC2)c2cccc(-c3ccc(C(F)(F)F)cc3)c2)cc1 [Example 2, N-((S)-3-Amino-2-hydroxy-3-oxopropyl)-4-((S)-2-cyclohexyl-1-(4′-(trifluoromethyl)-[1,1′-biphenyl]-3-yl)ethoxy)benzamide]
